Results on two substances are retold here after paper PMC4584933, “Establishing the pig as a large animal model for vaccine development against human cancer” (Frontiers in Genetics, 2015).

A short description of series [1]: Dissolving of 20mer peptides for immunization. Format: physicochemical. Conditions: to 5 mM in milliQ water, N-methyl-2-pyrrolidone or 3% ammonia water. As for the experimental part:
Fifty-nine 20mer peptides with 10mer overlap covering the entire IDO and RhoC amino acid (aa) sequence were purchased from Genscript (New Jersey, U.S) or Pepscan Presto BV (Lelystad, the Netherlands). […] Peptides were dissolved to a concentration of 5 mM in milliQ water, N-methyl-2-pyrrolidone or 3% ammonia water in accordance with the supplier's recommendations, for further details see Supplementary Table 1.

Series [2] deals with SLA-1*07:02. Description: Peptide-MHC class I complex stability, scintillation proximity assay (SPA). Details: species or system pig. Conditions: biotinylated recombinant SLA heavy chain, 125I-β2m, excess unlabeled β2m, read every 40 min, number only if t1/2 ≥ 0.5 h, '-' = not stably binding. The method in brief:
(§1)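 Biotinylated recombinant heavy chains captured on streptavidin scintillation plates with 125I-β2m and peptide; signal read every 40 min under dissociating conditions with excess unlabeled β2m. Signal duration gives complex half-life; ≥ 0.5 h counted as stable binder.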

The subject of series [3] is SLA-2*05:02. Described as above. Details: species or system pig. Conditions: biotinylated recombinant SLA heavy chain, 125I-β2m, excess unlabeled β2m, read every 40 min, number only if t1/2 ≥ 0.5 h, '-' = not stably binding. In short, it runs like this:
as §1

The test system of series [4] is SLA-2*04:01. The series is described as above. Further details: species or system pig. The note with it: biotinylated recombinant SLA heavy chain, 125I-β2m, excess unlabeled β2m, read every 40 min, number only if t1/2 ≥ 0.5 h, '-' = not stably binding. The method in brief:
as §1

The subject of series [5] is SLA-3*04:01. The description is as above. Further details: species or system pig. Conditions: biotinylated recombinant SLA heavy chain, 125I-β2m, excess unlabeled β2m, read every 40 min, number only if t1/2 ≥ 0.5 h, '-' = not stably binding. The method in brief:
as §1

Series [6] deals with SLA-1*04:01. The description is as above. Details: species or system pig. Conditions: biotinylated recombinant SLA heavy chain, 125I-β2m, excess unlabeled β2m, read every 40 min, number only if t1/2 ≥ 0.5 h, '-' = not stably binding. The method in brief:
as §1

For “IDO330−350: 20mer peptide of the overlapping IDO/RhoC library, omitted due to dissolving problems (EAYDACVKALVSLRSYHLQIV; UniProt P14902 330-350, looked up, fragment)”, in series [1], the dissolving of peptide result was “dissolving problems”.
On to “MTYKNMDILF [IDO81, porcine IDO-derived 9-11mer peptide]”, for which the “Binder (t1/2 ≥ 0.5 h): half-life of peptide-SLA-1*07:02 complex” value in series [2] was “- (t1/2 (hours) is listed for each of the stably binding peptides (t1/2 ≥ 0.5 h))”. Further, the “Binder (t1/2 ≥ 0.5 h): half-life of peptide-SLA-2*05:02 complex” value in series [3] is listed as “- (t1/2 (hours) is listed for each of the stably binding peptides (t1/2 ≥ 0.5 h))”. The “Binder (t1/2 ≥ 0.5 h): half-life of peptide-SLA-2*04:01 complex” value in series [4] worked out at 4.2 h. In addition, the “Binder (t1/2 ≥ 0.5 h): half-life of peptide-SLA-3*04:01 complex” value in series [5] is listed as “- (t1/2 (hours) is listed for each of the stably binding peptides (t1/2 ≥ 0.5 h))”. The “Binder (t1/2 ≥ 0.5 h): half-life of peptide-SLA-1*04:01 complex” value in series [6] is “- (t1/2 (hours) is listed for each of the stably binding peptides (t1/2 ≥ 0.5 h))”.
